# Measurements from US20260285831A1, “LACTAM DERIVATIVES FOR INHIBITING NLRP3 AND USES THEREOF” (Ventus Therapeutics U.S., Inc., priority 2023, published 2026).
# Read-outs that look alike come from different tables or passages of the source.
# Molecular target: T1, human NLRP3 (Homo sapiens, UniProt Q96P20)
# T1 construct: Human whole blood is drawn from healthy volunteers after obtaining written informed consent; from tissue; host or cells: human whole blood from healthy volunteers (heparin lithium tubes)
# T1 sequence (Q96P20 whole entry): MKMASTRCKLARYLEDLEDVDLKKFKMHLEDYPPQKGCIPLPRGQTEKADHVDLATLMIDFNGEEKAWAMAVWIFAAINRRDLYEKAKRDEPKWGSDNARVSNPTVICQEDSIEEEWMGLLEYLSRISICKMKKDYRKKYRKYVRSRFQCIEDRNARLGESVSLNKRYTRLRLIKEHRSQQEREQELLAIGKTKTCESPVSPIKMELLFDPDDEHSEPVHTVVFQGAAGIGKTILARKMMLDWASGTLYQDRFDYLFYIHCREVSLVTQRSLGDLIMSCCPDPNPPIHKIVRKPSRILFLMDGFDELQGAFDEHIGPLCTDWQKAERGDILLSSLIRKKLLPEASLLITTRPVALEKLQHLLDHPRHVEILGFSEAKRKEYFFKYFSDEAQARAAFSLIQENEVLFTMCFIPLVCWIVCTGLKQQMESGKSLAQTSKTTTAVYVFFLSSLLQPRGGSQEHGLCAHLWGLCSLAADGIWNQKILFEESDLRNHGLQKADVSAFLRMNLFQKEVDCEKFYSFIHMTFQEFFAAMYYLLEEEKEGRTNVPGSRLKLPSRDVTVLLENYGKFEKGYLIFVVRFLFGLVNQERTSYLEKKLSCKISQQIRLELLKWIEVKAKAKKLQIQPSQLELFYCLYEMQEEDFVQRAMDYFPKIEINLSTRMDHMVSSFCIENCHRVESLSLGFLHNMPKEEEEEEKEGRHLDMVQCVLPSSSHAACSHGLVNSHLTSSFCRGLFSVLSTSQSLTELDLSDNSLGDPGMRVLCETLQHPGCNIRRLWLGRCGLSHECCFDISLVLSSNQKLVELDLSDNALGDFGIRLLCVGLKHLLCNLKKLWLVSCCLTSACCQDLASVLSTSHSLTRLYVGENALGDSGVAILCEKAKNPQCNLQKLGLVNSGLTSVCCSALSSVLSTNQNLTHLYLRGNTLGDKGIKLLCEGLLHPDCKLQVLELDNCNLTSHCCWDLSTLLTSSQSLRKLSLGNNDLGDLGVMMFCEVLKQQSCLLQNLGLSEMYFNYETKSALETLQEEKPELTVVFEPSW
# Assay: Human whole blood (hWB) NLRP3 assay (IL-1β release after LPS priming and ATP activation)
# Format: cell-based
# Conditions: for IC50: human whole blood, read-out: hWB IL-1β IC50
# Procedure: Human Whole Blood (hWB) NLRP3 Assay
# Human whole blood is drawn from healthy volunteers after obtaining written informed consent. Heparin lithium coated tubes are used to collect blood from volunteers. Blood samples are distributed on 96 well plates using 90 μl per well.
# Priming procedure: Priming is performed by adding 5 μl of LPS (026:B6; Sigma L-2654) at a final concentration of 1 μg/ml for 4.5 hours in a humidified incubator with 37° C., 5% CO2. Thirty minutes prior to NLRP3 activation, 5 μl of a 20× compound solution or vehicle (2% dimethylsulfoxide (DMSO)) is added to each well and plates were incubated on a shaker (450 rpm) in a humidified incubator with 37° C., 5% CO2.
# Alternative priming procedure: Thirty minutes prior to LPS priming, 5 μl of a 20× compound solution or vehicle (2% dimethylsulfoxide (DMSO)) is added to each well and plates were incubated on a shaker (450 rpm) in a humidified incubator with 37° C., 5% CO2. Priming is performed by adding 5 μl of LPS (026:B6; Sigma L-2654) at a final concentration of 1 μg/ml for 5 hours in a humidified incubator with 37° C., 5% CO2.
# Activation is then performed by adding 3.3 μl of a 31×ATP solution per well. At the end of the 30 minutes stimulation, the plates are centrifuged (800 g, 10 min, room temperature) and the plasma from each well is frozen at −80° C. […] levels in the supernatant were analyzed using a mesoscale discovery assay (MSD K151TUK) according to the manufacturers' instructions.
# There is no detectable difference in assay IC50 results using the priming procedure versus the alternative priming procedure.
# Data provided in Table C, below. hWB […] Assay: A represents an IC50 value <0.3 μM; B represents an IC50 value ≥0.3 μM and <0.5 μM; C represents an IC50 value ≥0.5 μM and <1.0 μM; D represents an IC50 value ≥1.0 μM and <10 μM; E represents an IC50 value ≥10 μM. Dashed (--) lines indicate no data available.
# [1] = LPS 1 μg/ml priming, ATP activation, Table C, class symbols
"fold more active than 18B* (hWB IL-1β IC50) (R-isomer versus S-isomer 18B*, Table D) [fold]",IC50 [1] [µM],IC50 (numeric values of Tables D and E) [µM],SMILES
> 147,1 to 10,3.4,"CC1(C)C(=O)N([C@@H]2CCN(CCCC(=O)O)C2=O)c2ccc(C3CC3)c(F)c21 (stereo in doubt) [Compound 18A*, (R)-4-(3-(5-cyclopropyl-4-fluoro-3,3-dimethyl-2-oxoindolin-1-yl)-2-oxopyrrolidin-1-yl)butanoic acid]"
–,0.5 to 1,–,"CC1(C)C(=O)N(c2nccn([C@H]3CCC[C@@H]3CC(=O)O)c2=O)c2c(F)cc(C3CC3)c(F)c21 (single isomer, unassigned) [Compound 20C*]"
–,1 to 10,–,"CC1(C)C(=O)N([C@@H]2CCN(CCCC(=O)O)C2=O)c2c(F)cc(Cl)c(F)c21 (stereo in doubt) [Compound 23A, (R)-4-(3-(5-chloro-4,7-difluoro-3,3-dimethyl-2-oxoindolin-1-yl)-2-oxopyrrolidin-1-yl)butanoic acid]"
–,1 to 10,–,"CC1(C)C(=O)N(c2cc3ccccc3n(CCCC(=O)O)c2=O)c2c(F)cc(C3CC3)c(F)c21 [Compound 9, 4-(3-(5-cyclopropyl-4,7-difluoro-3,3-dimethyl-2-oxoindolin-1-yl)-2-oxoquinolin-1(2H)-yl)butanoic acid]"
